# Data as given in patent US12642809B2, “Fucosylation and immune modulation in cancer” (H. LEE MOFFITT CANCER CENTER AND RESEARCH INSTITUTE, INC., priority 2019, dated 2026).
# Legend:
# [1] = tested on: SM1 tumors; assay: Anti-PD1 ± L-fucose, SM1 (BRAF-mutant) model in C57BL/6 mice; format: in vivo, mouse
# Text: Fucosylation of HLA-DRB1 occurs on amino acid N48 (mutation to G abolishes interaction with fucose-binding AAL, lectin) (FIG. 9A). […] To further investigate the efficacy of the combination therapy of L-fucose and anti-PD1 and to see if the combination of L-fucose and anti-PD1 improved the efficacy of either agent alone, two mouse melanoma mouse models were used. The first was the NRAS-mutant melanoma mouse model. Here, C3H mice were pretreated with anti-PD1 and/or L-fucose or a L-fucose pre-dose followed by anti-PD1 antibody (FIG. 11). […] Using a BRAF-mutant melanoma model, the efficacy of the combination therapy was more pronounced. Here C57BL6 mice were challenged with SMI cells (FIG. 11). 7 days post challenge, mice received either a control, anti-PD1, L-fucose, or L-fucose and anti-PD1.
# SW1 or SM1 mouse melanoma cells were injected into syngeneic C3H/HeN female or C57BL/6 male mice, respectively. After approximately 7 days, when the mice tumors reached ˜150 mm^3, the mice were either supplemented with or without 100 mM L-fucose (Biosynth (Oak Terrace, IL)) via drinking water, which was provided ad libitum. Simultaneously, the mice were injected either with PBS (control) or anti-PD1 (20 mg/kg, clone RMP1-14, Bioxcell (West Lebanon, NH)) every 3-4 days until endpoint. When the tumors reached ˜2 cm^3, the animals were sacrificed.
# [2] = tested on: SW1 tumors; assay: SW1/C3H/HeJ model, L-fucose with anti-CTLA4 or anti-PD1 (FIG. 10); format: in vivo, mouse; conditions: oral L-fucose 100 mM from day 14
# Method: FIGS. 10A and 10B show Oral L-fucose is more tumor suppressive than α-CTLA4 or α-PD1 alone, beginnings of improved effects. SW1 tumor growth curves in mice fed ±100 mM L-fucose treated with either control (PBS) or […] (10A) or α-PD1 (10B). Combinations are color-coded as indicated. N=8 mice per condition. L-fucose was administered in the water starting on day 14 (refreshed twice weekly); α-CTLA4 or α-PD1 was administered (20 mg/kg each) twice weekly starting day 14.
# [3] = tested on: HLA-DRB1; assay: qRT-PCR and immunoblot of HLA-DRB1 in melanoma cells; format: cell-based, human; conditions: 250 μM, panel of melanoma cell lines
# Method: Cells were lysed on ice in RIPA lysis buffer (25 mM Tris-HCl pH 7.6, 150 mM NaCl, 5 mM EDTA, 1% NP-40 or 1% Triton X-100, 1% sodium deoxycholate, 0.1% SDS in diH2O+protease and phosphatase inhibitors (ThermoFisher Scientific (Waltham, MA)), briefly sonicated, pelleted, and the resulting lysates were normalized by protein concentration using DC assay (BioRad Laboratories, (Hercules, CA)). The indicated samples were subjected to (12%) SDS-PAGE and immunoblot analysis using the indicated antibodies. Immunoblot imaging and analysis was performed using either an Odyssey FC scanner and ImageStudio (LiCor Biosciences, Lincoln, NE) or film.
# RNA from cells subjected to the indicated treatments was extracted using Gene Elute Mammalian Total RNA Extraction System (Millipore Sigma (St. Louis, MO)). RNA was reversed transcribed to cDNA using High-Capacity cDNA Reverse Transcription Kit (ThermoFisher Scientific (Waltham, MA)). qRT-PCR analysis was performed using FastStart Universal SYBR Green Master Mix (Rox) (Roche Diagnostics, (Indianapolis, IN)) using a BioRad CFX96 Real-time system (BioRad Laboratories, (Hercules, CA)). The qRT-PCR cycles used were as follows: 95° C. for 10 min, 35 cycles of 95° C. for 15 seconds, 55° C. for 60 seconds, and 72° C. for 30 seconds. Expression of the indicated genes was normalized to histone H3A expression. […]
compound,measurement,setting,value
C[C@H](O)[C@@H](O)[C@@H](O)[C@H](O)C=O [L-fucose],tumor growth suppressed,[1]; for 21 days,> 50%
same,tumor suppression compared with anti-PD1,[1]; single agents,less effective than anti-PD1
same,suppression of melanoma growth compared with checkpoint antibodies,[2],more significantly than anti-CTLA4 or anti-PD1 alone
same,HLA-DRB1 mRNA and protein levels,[3],neither HLA-DRB1 mRNA nor protein levels were altered
